SMILES strings stand for the structures.

Nicotinamide phosphoribosyltransferase, sequence (P43490 whole entry): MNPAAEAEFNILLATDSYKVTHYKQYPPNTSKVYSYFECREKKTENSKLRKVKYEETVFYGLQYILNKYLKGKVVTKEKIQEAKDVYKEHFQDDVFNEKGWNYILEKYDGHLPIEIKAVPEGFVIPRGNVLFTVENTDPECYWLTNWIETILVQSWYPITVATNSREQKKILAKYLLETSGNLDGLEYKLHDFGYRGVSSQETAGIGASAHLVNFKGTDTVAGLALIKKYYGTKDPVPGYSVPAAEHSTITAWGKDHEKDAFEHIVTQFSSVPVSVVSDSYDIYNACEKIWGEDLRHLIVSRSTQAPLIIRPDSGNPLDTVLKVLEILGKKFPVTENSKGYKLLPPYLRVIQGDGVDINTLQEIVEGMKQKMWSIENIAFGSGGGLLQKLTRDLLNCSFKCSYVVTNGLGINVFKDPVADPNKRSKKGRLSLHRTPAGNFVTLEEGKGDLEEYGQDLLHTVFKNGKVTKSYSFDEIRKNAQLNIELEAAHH

This assay has as its target Nicotinamide phosphoribosyltransferase (Homo sapiens, UniProt P43490). Kind of assay: Enzymatic Reaction Assay: The NAMPT enzymatic reactions were carried out in Buffer A (50 mM Hepes pH 7.5, 50 mM NaCl, 5 mM MgCl2, and 1 mM THP) in 96-well V-bottom plates. The compound titrations were performed in a separate dilution plate by serially diluting the compounds in DMSO to make a 100× stock. Buffer A (89 μL) containing 33 nM of NAMPT protein was added to 1 μL of 100× compound plate containing controls (e.g. DMSO or blank). The compound and enzyme mixture was incubated for 15 min at rt, then 10 μL of 10× substrate and co-factors in Buffer A were added to the test well to make a final concentration of 1 μM NAM, 100 μM 5-Phospho-D-ribose 1-diphosphate (PRPP), and 2.5 mM Adenosine 5′-triphosphate (ATP). The reaction was allowed to proceed for 30 min at rt, then was quenched with the addition of 11 μL of a solution of formic acid and L-Cystathionine to make a final concentration of 1% formic acid and 10 μM L-Cystathionine. Background and signal strength was determined by addition (or non-addition) of a serial dilution of NMN to a pre-quenched enzyme and cofactor mix.
The term IC50 denotes the concentration that gives 50% inhibition. Turning to `CC(C)N1CCN(S(=O)(=O)c2ccc(CNC(=O)c3ccc4nccn4c3)cc2)CC1`, the IC50 came to 48.4 nM.

On to `CCN1CCC([S+]([O-])c2ccc(CNC(=O)c3ccc4nccn4c3)cc2)CC1` (stereo not drawn), for which the IC50 amounted to 43.4 nM.

For the molecule `O=C(NCc1ccc(S(=O)(=O)N2CC3COCC3C2)cc1)c1cnc2[nH]ncc2c1` (mixture of isomers), the IC50 is 150 nM.

The values are drawn from ChEMBL document CHEMBL5727788, “Amido-benzyl sulfone and sulfoxide derivates” (2020).
